Reference: PubChem BioAssay AID624458 (Sanford-Burnham Center for Chemical Genomics, 2012)
Values joined by “and” are separate entries in the source; they are usually repeats but may differ in a detail not shown here. Identical values can stand only once. Active and inactive are the calls of the source.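 How the source made its calls: active means mean IC50 of at most 10 µM; inactive means the rest.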

Each compound was assayed on H9c2 cardiomyoblasts, H2O2 injury protection, ATPLite luminescence, 2 h (assay: protection of cardiomyoblasts from H2O2 death, SAR follow-up, H9c2 cells, set 2 (AID 624458)).
`CCOC(=O)c1cccc(NC(=O)c2cc(-c3cc(OC)c(OC)c(OC)c3)nc3ccccc23)c1` was tested, and the IC50 was 3.06 µM. `COc1ccc2c(c1OC)C(=O)N1c3ccccc3C(=O)N(c3ccc(C(C)(C)C)cc3)C21` (centres undefined) showed an IC50 of 5.55 µM. For `COc1ccc2c(c1OC)C(=O)N1c3ccccc3C(=O)N(c3ccccc3)C21` (centres undefined), the IC50 was 11 µM (inactive). For `COc1ccc2c(c1OC)C(=O)N1c3ccccc3C(=O)N(c3cccc(Br)c3)C21` (centres undefined), the IC50 was 1.75 µM and 12.5 µM (inactive). `COc1cccc(-c2cc(C(=O)Nc3cccc(C(C)=O)c3)c3ccccc3n2)c1` showed an IC50 of 6.74 µM. `COc1ccc2c(c1OC)C(=O)N1c3ccccc3C(=O)N(c3cccc(C(F)(F)F)c3)C21` (centres undefined) was tested, and the IC50 was 13.8 µM (inactive). With `CCN(CC(=O)Nc1ccc(OC)cc1)C(=O)c1cc(-c2cc(OC)c(OC)c(OC)c2)nc2ccccc12` the IC50 was 3.89 µM. With `COc1ccc2c(c1OC)C(=O)N1c3ccccc3C(=O)N(Cc3cccc(Cl)c3)C21` (centres undefined) the IC50 was 2.96 µM. `COc1cccc(N2C(=O)c3ccccc3N3C(=O)c4ccccc4C23)c1` (centres undefined) was tested, and the IC50 was 40.5 µM (inactive). `COc1cccc(CNC(=O)c2cc(-c3ccc(OC)c(OC)c3)nc3ccccc23)c1` gave an IC50 of 5.82 µM. For `COc1ccc2c(c1OC)C(=O)N1c3ccccc3C(=O)N(c3cccc(Cl)c3)C21` (centres undefined), the IC50 was 12.1 µM (inactive). In the case of `COc1ccc2c(c1OC)C(=O)N1c3ccccc3C(=O)N(c3cccc(F)c3)C21` (centres undefined), the IC50 is reported as 6.91 µM. `CC(=O)c1cccc(NC(=O)c2cc(-c3ccccc3)nc3ccccc23)c1` was tested, and the IC50 was 7.04 µM. For `COc1cc(-c2cc(C(=O)Nc3ccccc3)c3ccccc3n2)cc(OC)c1OC`, the IC50 was 10.1 µM (inactive). Work on `COc1cccc(NC(=O)c2cc(-c3cc(OC)c(OC)c(OC)c3)nc3ccccc23)c1` yielded an IC50 of 8.18 µM. For `O=C1c2ccccc2N2C(=O)c3ccccc3C2N1c1ccccc1` (centres undefined), the IC50 was 61.1 µM (inactive). For `COc1ccc2c(c1OC)C(=O)N1c3ccccc3C(=O)N(Cc3ccccc3Cl)C21` (centres undefined), the IC50 was 1.2 µM. `O=C1c2ccccc2N2C(=O)c3ccccc3C2N1c1cccc(Br)c1` (centres undefined) was tested, and the IC50 was > 79 µM (inactive). For `COc1ccc(N2C(=O)c3ccccc3N3C(=O)c4c(ccc(OC)c4OC)C23)cc1` (centres undefined), the IC50 was 12.8 µM (inactive). For `COc1cc(-c2cc(C(=O)Nc3cccc(C(C)=O)c3)c3ccccc3n2)cc(OC)c1OC`, the IC50 was 1.41 µM and 4.26 µM. In the case of `COc1cc(-c2cc(C(=O)Nc3cccc(C)c3)c3ccccc3n2)cc(OC)c1OC`, the IC50 is reported as 18.8 µM (inactive). In the case of `COc1cc(-c2cc(C(=O)Nc3cccc(C(F)(F)F)c3)c3ccccc3n2)cc(OC)c1OC`, the IC50 is reported as 75.3 µM (inactive). With `COc1cccc(N2C(=O)c3ccccc3N3C(=O)c4c(ccc(OC)c4OC)C23)c1` (centres undefined) the IC50 was 6.89 µM. In the case of `COc1ccc(NC(=O)c2cc(-c3cc(OC)c(OC)c(OC)c3)nc3ccccc23)cc1`, the IC50 is reported as 7.41 µM. `COc1cc(-c2cc(C(=O)Nc3ccc(C(C)=O)cc3)c3ccccc3n2)cc(OC)c1OC` gave an IC50 of 3.53 µM. Compound `COc1ccc(-c2cc(C(=O)Nc3cccc(C(C)=O)c3)c3ccccc3n2)cc1` has an IC50 of 5.6 µM. Work on `COc1ccc2c(c1OC)C(=O)N1c3ccccc3C(=O)N(c3ccc(C)cc3)C21` (centres undefined) yielded an IC50 of 0.959 µM. `COc1ccc(-c2cc(C(=O)Nc3cccc(C(C)=O)c3)c3ccccc3n2)cc1OC` was tested, and the IC50 was 8.37 µM. `COc1cccc(CNC(=O)c2cc(-c3cc(OC)c(OC)c(OC)c3)nc3ccccc23)c1` showed an IC50 of 4.8 µM. In the case of `COc1ccc2c(c1OC)C(=O)N1c3ccccc3C(=O)N(c3cccc(C)c3)C21` (centres undefined), the IC50 is reported as 17.8 µM (inactive). For `COc1ccc2c(c1OC)C(=O)N1c3ccccc3C(=O)N(c3ccc(Br)cc3)C21` (centres undefined), the IC50 was 1.97 µM. Work on `COc1cc(-c2cc(C(=O)Nc3cccc(C(C)=O)c3)c3cc(Cl)ccc3n2)cc(OC)c1OC` yielded an IC50 of 6.13 µM. For `COc1cc(-c2cc(C(=O)Nc3cccc(Cl)c3)c3ccccc3n2)cc(OC)c1OC`, the IC50 was 58.4 µM (inactive). With `COc1cc(-c2cc(C(=O)Nc3cccc(F)c3)c3ccccc3n2)cc(OC)c1OC` the IC50 was 10.6 µM (inactive).
